Laboratory results published in article PMC4601567 (Steroids, 2014).

Biological target: T1, full-length recombinant rat vitamin D receptor (VDR) (Rattus norvegicus, UniProt P13053)
T1 sequence (P13053 1-423): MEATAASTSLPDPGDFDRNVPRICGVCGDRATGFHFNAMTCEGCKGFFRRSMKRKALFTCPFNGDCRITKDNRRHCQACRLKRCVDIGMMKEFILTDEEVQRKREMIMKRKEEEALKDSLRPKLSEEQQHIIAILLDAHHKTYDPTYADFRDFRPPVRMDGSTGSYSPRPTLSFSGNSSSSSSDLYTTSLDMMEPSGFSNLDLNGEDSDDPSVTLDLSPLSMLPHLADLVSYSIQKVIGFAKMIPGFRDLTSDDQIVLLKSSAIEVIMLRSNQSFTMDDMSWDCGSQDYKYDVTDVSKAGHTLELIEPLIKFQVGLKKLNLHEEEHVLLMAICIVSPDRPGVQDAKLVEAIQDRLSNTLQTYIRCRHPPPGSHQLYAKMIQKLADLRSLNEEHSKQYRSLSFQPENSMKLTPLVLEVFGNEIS
Assay: competitive radioligand displacement
Type: binding

C[C@H](/C=C/[C@H](C)C(C)(C)O)[C@H]1CC[C@H]2/C(=C/C=C3C[C@@H](O)C[C@H](O)C3)CCC[C@]12C [compound 2, 19-Nor-1α,25-dihydroxyvitaminD2 (Zemplar)] was tested, and the Ki was 100 pM.

For C=C1[C@H](O)CC(=C/C=C2\CCC[C@]3(C)[C@@H]([C@@H](C)/C=C/C[C@H](C)O)CC[C@@H]23)C[C@H]1O [9b, (20S,25S)-2-Methylene-19,26-dinor-22-(E)-ene-1α,25-dihydroxyvitamin D3], the Ki was 200 pM.

With C=C1[C@H](O)CC(=C/C=C2\CCC[C@]3(C)[C@@H]([C@@H](C)/C=C/C[C@@H](C)O)CC[C@@H]23)C[C@H]1O [9a, (20S,25R)-2-Methylene-19,26-dinor-22-(E)-ene-1α,25-dihydroxyvitamin D3] the Ki was 80 pM.

Work on C=C1[C@H](O)CC(=C/C=C2\CCC[C@]3(C)[C@@H]([C@H](C)/C=C/CC(C)(C)O)CC[C@@H]23)C[C@H]1O [compound 6, 2-Methylene-19-nor-22(E)-ene-1α,25-dihydroxyvitamin D3] yielded a Ki of 60 pM.

For C=C1[C@H](O)CC(=C/C=C2\CCC[C@]3(C)[C@@H]([C@H](C)/C=C/C[C@H](C)O)CC[C@@H]23)C[C@H]1O [8b, (20R,25S)-2-Methylene-19,26-dinor-22-(E)-ene-1α,25-dihydroxyvitamin D3], the Ki was 300 pM.

C=C1[C@H](O)CC(=C/C=C2\CCC[C@]3(C)[C@@H]([C@H](C)/C=C/C[C@@H](C)O)CC[C@@H]23)C[C@H]1O [8a, (20R,25R)-2-Methylene-19,26-dinor-22-(E)-ene-1α,25-dihydroxyvitamin D3] was tested, and the Ki was 90 pM.
